The results in this text go back to patent US20250320213A1, “Nitrogen-Containing Heterocyclic Compounds” (Pfizer Inc., priority 2024, published 2025).

Read-outs that look alike come from different tables or passages of the source.

The target of one assay is T1, STAT6 (Homo sapiens, UniProt P42226).
T1 construct: stably transfected HaCaT keratinocyte cell line, which expresses NanoLuc luciferase reporter gene under the transcriptional control of the STAT6 responsive promoter; endogenous in cells; host or cells: HaCaT keratinocyte reporter cell line (stably transfected with a NanoLuc reporter)
T1 sequence (P42226 1-847): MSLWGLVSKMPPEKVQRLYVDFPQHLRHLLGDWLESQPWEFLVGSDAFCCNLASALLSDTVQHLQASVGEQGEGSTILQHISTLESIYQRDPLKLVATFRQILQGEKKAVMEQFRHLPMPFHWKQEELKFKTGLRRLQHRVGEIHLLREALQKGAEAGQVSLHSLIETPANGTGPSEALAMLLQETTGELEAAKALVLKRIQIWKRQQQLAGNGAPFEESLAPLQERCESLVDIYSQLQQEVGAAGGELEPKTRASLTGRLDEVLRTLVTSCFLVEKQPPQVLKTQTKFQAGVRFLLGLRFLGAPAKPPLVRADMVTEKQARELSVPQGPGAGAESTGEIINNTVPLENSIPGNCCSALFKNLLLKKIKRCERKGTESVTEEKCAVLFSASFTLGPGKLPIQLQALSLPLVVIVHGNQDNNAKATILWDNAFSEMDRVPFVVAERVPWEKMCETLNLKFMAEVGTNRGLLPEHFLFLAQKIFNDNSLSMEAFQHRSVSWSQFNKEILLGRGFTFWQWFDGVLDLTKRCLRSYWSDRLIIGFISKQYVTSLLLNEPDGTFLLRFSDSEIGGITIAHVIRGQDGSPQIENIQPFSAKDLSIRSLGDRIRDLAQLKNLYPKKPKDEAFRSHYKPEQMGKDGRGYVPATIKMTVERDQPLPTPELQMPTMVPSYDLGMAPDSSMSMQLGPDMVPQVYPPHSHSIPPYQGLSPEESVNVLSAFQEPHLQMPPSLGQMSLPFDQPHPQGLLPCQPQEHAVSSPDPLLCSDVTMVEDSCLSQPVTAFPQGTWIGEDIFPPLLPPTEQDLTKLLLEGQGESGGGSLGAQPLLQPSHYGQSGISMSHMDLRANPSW
The experiment in a line: STAT6 Reporter Luciferase Assay (IL-13 stimulated HaCaT keratinocyte NanoLuc reporter cells). The assay is classed as cell-based. Conditions: read-out: Reporter EC50. Put shortly: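 Cells were plated overnight, washed, exposed to compound for two hours, stimulated with IL-13 (0.12 nM final) for four hours at 37 °C, and then lysed with Nano-Glo substrate for 15 min before luminescence reading.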

The subject of assay [1] is CCL17 secretion in peripheral human whole blood. Nature of the assay: Human Whole Blood (HWB) CCL17 TR-FRET Assay (IL-13 stimulated CCL17 secretion). The assay is classed as cell-based. In a few lines: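 Measured here: CCL17 in serum by TR-FRET (665/615 nm) after overnight (16 h) room-temperature detection. The blood, heparinized and compound-treated for 2 h, received IL-13 at 10 ng/mL final and was cultured 48 h at 37 °C.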
(In TR-FRET formats the signal depends on donor and acceptor labels being close together.)

Where [2] appears, read: IL-13 stimulated HaCaT STAT6 NanoLuc reporter cells.
The mark [3] stands for this setting: Homo sapiens, 48 h, human whole blood, IL-13 stimulated.
[4] abbreviates: STAT6 NanoLuc luciferase reporter, IL-13 stimulated HaCaT keratinocyte cells.
Setting [5] is: Homo sapiens, 48 h, inhibition of CCL17 secretion in human whole blood, 10 ng/mL IL13, 48 hours.
The mark [6] stands for this setting: Homo sapiens, 48 h, human whole blood, 10 ng/mL IL13, 48 hours.

As to `CC1CN(c2ccc(-c3nccn3C)cn2)Cc2c(C(=O)NCc3ccc(NC(=O)N(C)C)cc3)nn(C)c21` (single isomer, unassigned) [Example 203, rel-(R or S)-N-(4-(3,3-dimethylureido)benzyl)-1,7-dimethyl-5-(5-(1-methyl-1H-imidazol-2-yl)pyridin-2-yl)-4,5,6,7-tetrahydro-1H-pyrazolo[4,3-c]pyridine-3-carboxamide], the EC50 (commonly the concentration giving half of the maximal effect) at STAT6 (setting [2]) was 1 nM. In addition, inhibition in assay [1] (human whole blood, IL-13 stimulated, 48 hours) was half-maximal at 16 nM (IC50).

With `CC(C)n1nc(C(=O)NCc2ccc(NC(=O)N3CC(C)(O)C3)cc2)c2c1CCN(c1ccc(C(=O)N(C)C)cn1)C2` [Example 185, 5-(5-(dimethylcarbamoyl)pyridin-2-yl)-N-(4-(3-hydroxy-3-methylazetidine-1-carboxamido)benzyl)-1-isopropyl-4,5,6,7-tetrahydro-1H-pyrazolo[4,3-c]pyridine-3-carboxamide], the concentration giving a half-maximal response (EC50) on STAT6 (setting [2]) stood at 24 nM. Half-maximal inhibition in assay [1] (setting [3]) (IC50) required 83 nM.

For the compound `CC(C)n1nc(C(=O)NCc2ccc(NC(=O)N3CCC(OCCO)CC3)cc2)c2c1CCN(c1ccc(C(=O)N(C)C)cn1)C2` [Example 162, 5-(5-(dimethylcarbamoyl)pyridin-2-yl)-N-(4-(4-(2-hydroxyethoxy)piperidine-1-carboxamido)benzyl)-1-isopropyl-4,5,6,7-tetrahydro-1H-pyrazolo[4,3-c]pyridine-3-carboxamide], at STAT6 (setting [4]), the EC50 worked out at 11 nM. Also, in assay [1] (setting [5]), half-maximal inhibition (IC50) required 66 nM.

With `CC(C)n1nc(C(=O)NCc2ccc(NC(=O)N3CCN(C)CC3)c(F)c2)c2c1[C@@H](C)CN(c1ccc(C(=O)N(C)C)cc1)C2` [Example 580, (S)-5-(4-(dimethylcarbamoyl)phenyl)-N-(3-fluoro-4-(4-methylpiperazine-1-carboxamido)benzyl)-1-isopropyl-7-methyl-4,5,6,7-tetrahydro-1H-pyrazolo[4,3-c]pyridine-3-carboxamide], the EC50 on STAT6 (setting [2]) stood at 1 nM. In addition, the midpoint of inhibition in assay [1] (setting [6]), the IC50, lay at 11 nM.

Turning to `CC(C)n1nc(C(=O)NCc2ccc(NC(=O)N(C)C)cc2)c2c1CCN(c1ccc(C3CCOC3)cn1)C2` (racemic) [Example 345, rac-(R)-N-(4-(3,3-dimethylureido)benzyl)-1-isopropyl-5-(5-(tetrahydrofuran-3-yl)pyridin-2-yl)-4,5,6,7-tetrahydro-1H-pyrazolo[4,3-c]pyridine-3-carboxamide], the concentration giving a half-maximal response (EC50) on STAT6 (setting [2]) was greater than 2630 nM. The IC50 (as a rule, the concentration that gives 50% inhibition) in assay [1] (setting [3]) was greater than 30000 nM.

In the case of `CC(C)n1nc(C(=O)NCc2ccc(NC(=O)N3CCN(C)CC3)c(F)c2)c2c1[C@@H](C)CN(c1ccc(C(=O)N3Cc4cccnc4C3)cn1)C2` [Example 612, (S)-5-(5-(6,7-dihydro-5H-pyrrolo[3,4-b]pyridine-6-carbonyl)pyridin-2-yl)-N-(3-fluoro-4-(4-methylpiperazine-1-carboxamido)benzyl)-1-isopropyl-7-methyl-4,5,6,7-tetrahydro-1H-pyrazolo[4,3-c]pyridine-3-carboxamide], the EC50 at STAT6 (setting [2]) amounted to 0.5 nM. In assay [1] (setting [6]), this compound displayed an IC50 of 10 nM.

As to `C[C@H]1CN(c2ccc(C(=O)N(C)C)cn2)Cc2c(C(=O)NCc3ccc(NC(=O)N(C)C)cc3)nn(C3CCC3)c21` (single isomer, unassigned) [Example 119], the half-maximal effective concentration (EC50) at STAT6 (setting [4]) stood at 0.3 nM. The compound also showed a half-maximal inhibitory concentration (IC50) in assay [1] (setting [5]) of 4 nM.

For the compound `CC(C)n1nc(C(=O)NCc2ccc(NC(=O)N(C)C)cc2)c2c1CCN(c1ccc(C3CCN(C)C3=O)cn1)C2` (racemic) [Example 505, rac-(R)-N-(4-(3,3-dimethylureido)benzyl)-1-isopropyl-5-(5-(1-methyl-2-oxopyrrolidin-3-yl)pyridin-2-yl)-4,5,6,7-tetrahydro-1H-pyrazolo[4,3-c]pyridine-3-carboxamide], the EC50 on STAT6 (setting [2]) came to 7900 nM. In addition, in assay [1] (setting [3]), the 50% inhibitory concentration (IC50) is greater than 30000 nM.

Regarding `CC(C)n1nc(C(=O)NCc2ccc(-c3ncc[nH]3)cc2)c2c1C(C(F)(F)F)CN(c1ccc(C(=O)N(C)C)cn1)C2` (single isomer, unassigned) [Example 123, rel-(R or S)-N-(4-(1H-imidazol-2-yl)benzyl)-5-(5-(dimethylcarbamoyl)pyridin-2-yl)-1-isopropyl-7-(trifluoromethyl)-4,5,6,7-tetrahydro-1H-pyrazolo[4,3-c]pyridine-3-carboxamide], the 50% effective concentration (EC50) on STAT6 (setting [4]) was 41 nM. The compound also displayed a half-inhibitory concentration (IC50) in assay [1] (inhibition of CCL17 secretion in human whole blood, 10 ng/mL IL13, 48 hours) of 1010 nM.

Take `CC(C)n1nc(C(=O)NCc2ccc(NC(=O)N(C)C)cn2)c2c1C[C@H](C)N(c1ccc(C(=O)N(C)C)cn1)C2` [Example 535, (S)-5-(5-(dimethylcarbamoyl)pyridin-2-yl)-N-((5-(3,3-dimethylureido)pyridin-2-yl)methyl)-1-isopropyl-6-methyl-4,5,6,7-tetrahydro-1H-pyrazolo[4,3-c]pyridine-3-carboxamide]: the EC50 at STAT6 (setting [2]) is 5 nM. In assay [1] (setting [6]), the concentration for half-maximal inhibition (IC50) was 13 nM.

On to `CC(C)c1nc(C(=O)NCc2ccc(NC(=O)N(C)C)cc2)c2n1CCN(c1ccc(C(=O)N(C)C)cn1)C2` [Example 32, 7-(5-(dimethylcarbamoyl)pyridin-2-yl)-N-(4-(3,3-dimethylureido)benzyl)-3-isopropyl-5,6,7,8-tetrahydroimidazo[1,5-a]pyrazine-1-carboxamide], for which the EC50 on STAT6 (setting [4]) is 9 nM. In assay [1] (setting [5]), this compound displayed a 50% inhibitory concentration (IC50) of 40 nM.

As to `CC(C)n1nc(C(=O)NCc2ccc(NC(=O)N(C)C)cc2)c2c1CCN(c1ccc(N3CCOCC3=O)cn1)C2` [Example 103, N-(4-(3,3-dimethylureido)benzyl)-1-isopropyl-5-(5-(3-oxomorpholino)pyridin-2-yl)-4,5,6,7-tetrahydro-1H-pyrazolo[4,3-c]pyridine-3-carboxamide], the 50% effective concentration (EC50) on STAT6 (setting [4]) is 47 nM. Inhibition in assay [1] (setting [5]) was half-maximal at 535 nM (IC50).

With `CCn1nc(C(=O)NCc2ccc(C(=O)NC)cc2)c2c1[C@@H](C)CN(c1ccc(N3CCCC3=O)cn1)C2` [Example 388, (S)-1-ethyl-7-methyl-N-(4-(methylcarbamoyl)benzyl)-5-(5-(2-oxopyrrolidin-1-yl)pyridin-2-yl)-4,5,6,7-tetrahydro-1H-pyrazolo[4,3-c]pyridine-3-carboxamide], the 50% effective concentration (EC50) at STAT6 (setting [2]) amounted to 8 nM. The compound also came in with a half-inhibitory concentration (IC50) in assay [1] (setting [3]) of 29 nM.

Regarding `CC(C)n1nc(C(=O)NCc2ccc(NC(=O)N(C)C)cc2)c2c1CCN(c1ccc(N3CC(CO)OC3=O)cn1)C2` (racemic) [Example 80, rac-(R)-N-(4-(3,3-dimethylureido)benzyl)-5-(5-(5-(hydroxymethyl)-2-oxooxazolidin-3-yl)pyridin-2-yl)-1-isopropyl-4,5,6,7-tetrahydro-1H-pyrazolo[4,3-c]pyridine-3-carboxamide], on STAT6 (setting [4]), the EC50 was greater than 10000 nM. This compound also yielded an IC50 in assay [1] (setting [5]) greater than 30000 nM.

As to `C[C@H]1CN(c2ccc(C(=O)N(C)C)cn2)Cc2c(C(=O)NCc3ccc(NC(=O)N(C)C)cc3)nn(C3(C)CC3)c21` (single isomer, unassigned) [Example 285], at STAT6 (setting [2]), the EC50 amounted to 1 nM. Moreover, the concentration for half-maximal inhibition (IC50) in assay [1] (setting [3]) stood at 7 nM.

As to `Cc1coc(-c2ccc(CNC(=O)c3nn(C(C)C)c4c3CN(c3ccc(C(=O)N(C)C)cc3)C[C@@H]4C)cc2)n1` [Example 723, (S)-5-(4-(dimethylcarbamoyl)phenyl)-1-isopropyl-7-methyl-N-(4-(4-methyloxazol-2-yl)benzyl)-4,5,6,7-tetrahydro-1H-pyrazolo[4,3-c]pyridine-3-carboxamide], the concentration giving a half-maximal response (EC50) on STAT6 (setting [2]) was found to be 128 nM. The compound also gave a concentration for half-maximal inhibition (IC50) in assay [1] (Homo sapiens, 48 h, human whole blood, IL-13 10 ng/mL) of 665 nM.

With `CC(C)n1nc(C(=O)NCc2ccc(C(N)=O)cc2)c2c1[C@@H](C)CN(c1ccc(N3CCOC3=O)cn1)C2` [Example 517, (S)-N-(4-carbamoylbenzyl)-1-isopropyl-7-methyl-5-(5-(2-oxooxazolidin-3-yl)pyridin-2-yl)-4,5,6,7-tetrahydro-1H-pyrazolo[4,3-c]pyridine-3-carboxamide], the half-maximal effective concentration (EC50) on STAT6 (setting [2]) is 9 nM. Moreover, in assay [1] (setting [3]), inhibition was half-maximal at 33 nM (IC50).
